Experimental data from patent publication US8097725B2, “Luminescent indicator dye and optical sensor” (Roche Diagnostics Operations, Inc., priority 2004, dated 2012).

Assays:
[1] = immobilized in a hydrogel matrix; FIG. 3 in Werner et al.; cited from earlier work
[2] = pH titration of luminescence intensity of the optical sensor disc; format: physicochemical
Method: The indicator layer casting solution was coated onto a polyester foil (Melinex foil, ICI America) and the solvent was evaporated. The final dry thickness of the indicator layer was approximately 10 μm. Then, the overcoat layer casting solution was coated onto the indicator layer and the solvent was evaporated. The final a dry thickness of the overcoat layer was about 5 μm. Then, a small sensor disc (2.5 cm diameter) was punched out and soaked in buffer for at least 17 h for activation.
Aliquots of solutions A and B were mixed in appropriate rations to obtain eleven pH buffer solutions of pH 2.67, 3.66, 5.41, 6.35, 6.74, 7.28, 7.76, 8.29, 8.78, 9.81, 10.79, respectively. The pHs were determined at 37° C. with a standard glass electrode.
The sensor discs thus obtained were used in the measuring set-up represented schematically in FIG. 2. In FIG. 2, the reference character S denotes a portion of the sensor disc. […]
[formula] L denotes luminescence intensity and Lm denotes maximum luminescence intensity. […] (ON intensity=luminescence intensity of the protonated species (i.e., in FIG. 3 the intensity at pHs<5), OFF intensity=intensity of the deprotonated species (i.e., in FIG. 3 the intensity at pHs>10).

For CC1=CC(C)=[N+]2C1=C(c1ccc(N(C)C)cc1)c1c(C)cc(C)n1[B-]2(F)F [1,3,5,7-tertramethyl-8-(4-dimethylamino)-4-difluorobora-3a,4a-diaza(s)-indacene], the pK [1] is listed as 3.3.

In the case of O=C(O)c1ccc(CN2C(=O)c3cccc4c(NCCc5cc(Cl)c(O)c(Cl)c5)ccc(c34)C2=O)cc1 [Dye A41], the “OFF intensity as percentage of ON intensity” value ([2]; ON = protonated species (pH<5), OFF = deprotonated species (pH>10)) is reported as 5% and the pK value ([2]; immobilized on PVP beads dispersed in hydrophilic polymer layer, 37° C., buffers pH 2.67-10.79, least squares fit of intensity vs pH, excitation 480 nm, emission 520 nm cut-off) is reported as 7.25.
